Results: patent US9181234B2, “Antibacterial compounds” (priority 2010, dated 2015)
Converted amounts (≈) assume the structure as drawn.

Columns and labels:
[1] = physchem; conditions: for solubility at 24 h: kinetic from dmso stock; for Solubility (pH 7.4): 24 h
Method in brief: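 DMSO doubling dilutions were diluted twenty-fold into 100 mM citrate (pH 4), PBS (pH 7.4) or carbonate-bicarbonate (pH 9). After 24 h equilibration at room temperature, absorbance was read at 620 nm. The reported value is the highest concentration without measurable precipitate.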

[2] = system: Staphylococcus aureus (Isolate ID ATCC 29213); assay: Antibacterial activity, MIC, S. aureus; assay type: cell-based; conditions: broth microdilution or agar dilution; for MIC: Staphylococcus aureus, ATCC29213, Gram positive strain
Method in brief: (§1)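 Compounds are serially diluted in broth or agar as CLSI specifies for aerobically growing bacteria, and the MIC is then recorded for each strain.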

[3] = system: Streptococcus pyogenes (Isolate ID ATCC 51339); assay: Antibacterial activity, MIC, S. pyogenes; assay type: cell-based; conditions: broth microdilution or agar dilution; for MIC: Streptococcus pyogenes, ATCC51339, Gram positive strain
Method in brief: as §1

[4] = system: Haemophilus influenzae (Isolate ID ATCC 49247); assay: Antibacterial activity, MIC, H. influenzae; assay type: cell-based; conditions: Gram negative strain, broth microdilution or agar dilution; for MIC: Haemophilus influenzae, ATCC49247
Method in brief: as §1

[5] = pH 7.4, aqueous buffer, Max Solubility
[6] = pH 7.4, aqueous buffer, Solubility (pH 7.4)
[7] = pH 7.4, aqueous buffer, Solubility Range
[8] = pH 7.4, aqueous buffer, Solubility Range (maximum solubility)
[9] = pH 9, aqueous buffer, Max Solubility
[10] = pH 9, aqueous buffer, Solubility Range (maximum solubility)

| Structure (SMILES) | solubility at 24 h [1, 5] [µg/mL] | solubility at 24 h [1, 6] [µg/mL] | solubility at 24 h [1, 7] [µg/mL] | solubility at 24 h [1, 8] [µg/mL] | MIC [2] [µg/mL] | MIC [3] [µg/mL] | MIC [4] [µg/mL] | Solubility (pH 7.4) [1] | solubility at 24 h [1, 9] [µg/mL] | solubility at 24 h [1, 10] [µg/mL] | solubility at 24 h ([1]; pH 4, aqueous buffer, Max Solubility) [µg/mL] | solubility at 24 h ([1]; pH 4, aqueous buffer, Solubility Range (maximum solubility)) [µg/mL] | Antibacterial Activity (MIC) S. aureus (ATCC 29213) ([2]; Gram positive strain) | Antibacterial Activity (MIC) S. pyogenes (ATCC 51339) ([3]; Gram positive strain) | Antibacterial Activity (MIC) H. influenzae (ATCC 49247) [4] |
| --- | --- | --- | --- | --- | --- | --- | --- | --- | --- | --- | --- | --- | --- | --- | --- |
| CCNC(=O)Nc1nc2cc(-c3cnc(N4CCC(CC)(C(=O)O)CC4)nc3)nc(-c3ccccn3)c2s1 [Compound 210] | 200 (≈ 375 µM) | 200 (≈ 375 µM) | 12.5 to 400 (≈ 23.5 to 751 µM) | 12.5 to 400 (≈ 23.5 to 751 µM) | 0.25 to 1 (≈ 0.469 to 1.88 µM) | ≤ 0.25 | 1 to 16 (≈ 1.88 to 30 µM) | – | – | – | – | – | – | – | – |
| CCNC(=O)Nc1nc2cc(-c3cnc(N4CCC(CC)(C(=O)O)CC4)nc3)cc(/C(CC)=N\OC)c2s1 [Compound 211, (Z)-4-Ethyl-1-(5-(2-(3-ethylureido)-7-(1-(methoxyimino)propyl)benzo[d]thiazol-5-yl)pyrimidin-2-yl)piperidine-4-carboxylic acid] | ≥ 800 | – | – | > 800 | 0.25 to 1 (≈ 0.463 to 1.85 µM) | 0.25 to 1 (≈ 0.463 to 1.85 µM) | 1 to 16 (≈ 1.85 to 29.6 µM) | ≧800 μg/mL | – | – | – | – | – | – | – |
| CCNC(=O)Nc1nc2cc(-c3cnc(N4CCC(C)(C(=O)O)CC4)nc3)cc(-c3noc(C)n3)c2s1 [Compound 213, 1-[5-[2-(Ethylcarbamoylamino)-7-(5-methyl-1,2,4-oxadiazol-3-yl)-1,3-benzothiazol-5-yl]pyrimidin-2-yl]-4-methyl-piperidine-4-carboxylic acid] | – | 400 (≈ 765 µM) | 400 to 800 (≈ 765 to 1530 µM) | – | 0.25 to 1 (≈ 0.478 to 1.91 µM) | 0.25 to 1 (≈ 0.478 to 1.91 µM) | 0.25 to 1 (≈ 0.478 to 1.91 µM) | – | ≥ 800 | > 800 | – | – | – | – | – |
| CCNC(=O)Nc1nc2cc(-c3cnc(N4CCC(C)(C(=O)O)CC4)nc3C)cc(-c3ccccn3)c2s1 [Compound 214] | – | 400 (≈ 752 µM) | 400 to 800 (≈ 752 to 1500 µM) | – | 0.25 to 1 (≈ 0.47 to 1.88 µM) | 0.25 to 1 (≈ 0.47 to 1.88 µM) | 1 to 16 (≈ 1.88 to 30.1 µM) | – | ≥ 800 | > 800 | – | – | – | – | – |
| CCNC(=O)Nc1nc2cc(-c3cnc(N4CCC(C)(C(=O)O)CC4)nc3)cc(Br)c2s1 [Compound 215] | – | 400 (≈ 770 µM) | 400 to 800 (≈ 770 to 1540 µM) | – | ≤ 0.25 | 0.25 to 1 (≈ 0.481 to 1.93 µM) | 1 to 16 (≈ 1.93 to 30.8 µM) | – | ≥ 800 | > 800 | – | – | – | – | – |
| CCNC(=O)Nc1nc2cc(-c3cnc(NC4COC(C)(C(=O)OCC)OC4)nc3)cc(-c3ccccn3)c2s1 (stereo not shown) [Compound 216] | – | 25 (≈ 44.4 µM) | 12.5 to 400 (≈ 22.2 to 710 µM) | – | ≤ 0.25 | 1 to 16 (≈ 1.77 to 28.4 µM) | 1 to 16 (≈ 1.77 to 28.4 µM) | – | – | – | 50 (≈ 88.7 µM) | 12.5 to 400 (≈ 22.2 to 710 µM) | – | – | – |
| CCNC(=O)Nc1nc2cc(-c3cnc(N4CCC(C)(C(=O)O)CC4)nc3)cc(-c3ccc(CN4CCC(F)(F)CC4)cn3)c2s1 [Compound 217] | – | 400 (≈ 615 µM) | 400 to 800 (≈ 615 to 1230 µM) | – | ≤ 0.25 | 0.25 to 1 (≈ 0.384 to 1.54 µM) | 1 to 16 (≈ 1.54 to 24.6 µM) | – | ≥ 800 | > 800 | – | – | – | – | – |
| CCNC(=O)Nc1nc2cc(-c3cnc(N(C)C4CCC(C)(C(=O)O)CC4)nc3)cc(-c3ccccn3)c2s1 (stereo not shown) [Compound 218] | – | 200 (≈ 367 µM) | 12.5 to 400 (≈ 22.9 to 733 µM) | – | ≤ 0.25 | ≤ 0.25 | 1 to 16 (≈ 1.83 to 29.3 µM) | – | ≥ 800 | > 800 | – | – | – | – | – |
| CCNC(=O)Nc1nc2cc(-c3cnc(N4CCC5(CC4)CC(CC)(C(=O)O)C5)nc3)cc(-c3ccccn3)c2s1 [Compound 219] | ≥ 800 | ≥ 800 | > 800 | > 800 | ≤ 0.25 | 0.25 to 1 (≈ 0.437 to 1.75 µM) | 1 to 16 (≈ 1.75 to 28 µM) | – | – | – | – | – | – | – | – |
| CCNC(=O)Nc1nc2cc(-c3cnc(N4CCC(C)(C(=O)O)CC4)nc3OC)cc(-c3ccccn3)c2s1 [Compound 220] | – | 50 (≈ 91.3 µM) | 12.5 to 400 (≈ 22.8 to 730 µM) | – | ≤ 0.25 | ≤ 0.25 | 1 to 16 (≈ 1.83 to 29.2 µM) | – | 400 (≈ 730 µM) | 400 to 800 (≈ 730 to 1460 µM) | – | – | – | – | – |
| CCNC(=O)Nc1nc2cc(-c3cnc(N4CCC(CC)(C(=O)O)CC4)s3)cc(-c3ccccn3)c2s1 [Compound 221, 4-Ethyl-1-[5-[2-(ethylcarbamoylamino)-7-(2-pyridyl)-1,3-benzothiazol-5-yl]thiazol-2-yl]piperidine-4-carboxylic acid] | ≥ 800 | ≥ 800 | > 800 | > 800 | ≤ 0.25 | ≤ 0.25 | 1 to 16 (≈ 1.86 to 29.8 µM) | – | – | – | – | – | – | – | – |
| CCNC(=O)Nc1nc2cc(-c3cnc(NC4CCC(C)(C(=O)O)CC4)nc3)cc(-c3ccccn3)c2s1 (stereo not shown) [Compound 222] | ≥ 800 | ≥ 800 | > 800 | > 800 | ≤ 0.25 | ≤ 0.25 | 0.25 to 1 (≈ 0.47 to 1.88 µM) | – | – | – | – | – | – | – | – |
| CCNC(=O)Nc1nc2cc(-c3cnc(N4CCC(CC)(C(=O)O)CC4)nc3)cc(/C(CC)=N\OC)c2s1 [Compound 223, (E/Z)-4-ethyl-1-(5-(2-(3-ethylureido)-7-(1-(methoxyimino)propyl)benzo[d]thiazol-5-yl)pyrimidin-2-yl)piperidine-4-carboxylic acid] | – | – | – | – | – | – | – | 100 μg/mL | 400 (≈ 741 µM) | 400 to 800 (≈ 741 to 1480 µM) | – | – | A (“A” activity ≦0.25 μg/mL) | A (“A” activity ≦0.25 μg/mL) | C (“C” activity >1.0 μg/mL-16 μg/mL) |
| CCNC(=O)Nc1nc2cc(-c3cnc(N4CCC(CC)(C(=O)O)CC4)nc3)cc(/C(CC)=N/OC)c2s1 [Compound 224, 4-ethyl-1-[5-[2-(ethylcarbamoylamino)-7-[(E)-C-ethyl-N-methoxy-carbonimidoyl]-1,3-benzothiazol-5-yl]pyrimidin-2-yl]piperidine-4-carboxylic acid] | ≥ 800 | ≥ 800 | > 800 | > 800 | ≤ 0.25 | ≤ 0.25 | 1 to 16 (≈ 1.85 to 29.6 µM) | – | – | – | – | – | – | – | – |
| CCNC(=O)Nc1nc2cc(-c3cnc(N4CCC(CC)(C(=O)O)CC4)nc3)cc(/C=N\OC)c2s1 [Compound 225, 4-Ethyl-1-[5-[2-(ethylcarbamoylamino)-7-[(Z)-methoxyiminomethyl]-1,3-benzothiazol-5-yl]pyrimidin-2-yl]piperidine-4-carboxylic acid] | ≥ 800 | ≥ 800 | > 800 | > 800 | ≤ 0.25 | ≤ 0.25 | 0.25 to 1 (≈ 0.489 to 1.95 µM) | – | – | – | – | – | – | – | – |
| CCNC(=O)Nc1nc2cc(-c3cnc(N4CCC(CC)(C(=O)O)CC4)nc3)cc(-c3ncc(C)cn3)c2s1 [Compound 226] | ≥ 800 | ≥ 800 | > 800 | > 800 | ≤ 0.25 | ≤ 0.25 | 0.25 to 1 (≈ 0.457 to 1.83 µM) | – | – | – | – | – | – | – | – |
| CCNC(=O)Nc1nc2cc(-c3cnc(N4CCC(C)(C(=O)O)CC4)nc3)cc(-n3cccn3)n2n1 [Compound 227, 1-(5-{2-[(ethylcarbamoyl)amino]-5-(1H-pyrazol-1-yl)[1,2,4]triazolo[1,5-a]pyridin-7-yl}pyrimidin-2-yl)-4-methylpiperidine-4-carboxylic acid] | 400 (≈ 815 µM) | 400 (≈ 815 µM) | 400 to 800 (≈ 815 to 1630 µM) | 400 to 800 (≈ 815 to 1630 µM) | 1 to 16 (≈ 2.04 to 32.6 µM) | 1 to 16 (≈ 2.04 to 32.6 µM) | 1 to 16 (≈ 2.04 to 32.6 µM) | – | – | – | – | – | – | – | – |
| CCNC(=O)Nc1nc2cc(-c3cnc(N4CCC(CC)(C(=O)O)CC4)nc3)cc(-c3ncccn3)c2s1 [Compound 228] | 200 (≈ 375 µM) | 200 (≈ 375 µM) | 12.5 to 400 (≈ 23.5 to 751 µM) | 12.5 to 400 (≈ 23.5 to 751 µM) | ≤ 0.25 | ≤ 0.25 | 1 to 16 (≈ 1.88 to 30 µM) | – | – | – | – | – | – | – | – |
